Reference: publication PMC8872763 (Proceedings of the National Academy of Sciences of the …, 2022)

Biological target: glucose oxidase (GOX) (Aspergillus niger, UniProt P13006)
Test: time-resolved fluorescence of protein-bound flavin
Assay type: binding
Details: 390-nm excitation

glucose oxidase (GOX), sequence (P13006 23-605 limits assumed): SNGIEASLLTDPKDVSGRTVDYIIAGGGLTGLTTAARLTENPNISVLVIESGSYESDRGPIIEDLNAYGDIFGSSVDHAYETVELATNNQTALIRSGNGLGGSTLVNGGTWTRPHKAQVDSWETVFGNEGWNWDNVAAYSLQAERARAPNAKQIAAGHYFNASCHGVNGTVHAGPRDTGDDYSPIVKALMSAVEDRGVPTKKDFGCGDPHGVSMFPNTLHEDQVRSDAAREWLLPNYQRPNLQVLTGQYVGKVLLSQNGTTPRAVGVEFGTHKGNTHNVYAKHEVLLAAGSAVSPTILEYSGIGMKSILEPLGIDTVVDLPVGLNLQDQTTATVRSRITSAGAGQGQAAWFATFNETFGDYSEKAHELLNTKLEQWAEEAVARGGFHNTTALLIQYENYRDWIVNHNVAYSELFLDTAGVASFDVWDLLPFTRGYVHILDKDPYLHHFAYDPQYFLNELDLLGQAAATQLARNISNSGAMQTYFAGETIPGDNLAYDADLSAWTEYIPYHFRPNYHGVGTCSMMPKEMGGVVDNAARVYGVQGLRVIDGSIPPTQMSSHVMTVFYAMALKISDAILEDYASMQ

| SMILES | time-resolved fluorescence of protein-bound flavin (Kerr gate) |
| --- | --- |
| Cc1cc2c(cc1C)N(C[C@H](O)[C@H](O)[C@H](O)COP(=O)(O)OP(=O)(O)OC[C@H]1O[C@@H](n3cnc4c(N)ncnc43)[C@H](O)[C@@H]1O)c1[nH]c(=O)[nH]c(=O)c1N2 [FADH^−] | time-resolved fluorescence of FADH^− in GOX exhibits monophasic decay |
| Cc1cc2nc3c(=O)[nH]c(=O)nc-3n(C[C@H](O)[C@H](O)[C@H](O)COP(=O)(O)OP(=O)(O)OC[C@H]3O[C@@H](n4cnc5c(N)ncnc54)[C@H](O)[C@@H]3O)c2cc1C [FADox] | The fluorescence decays of FADox and FADH^− in GOX measured under the same experimental conditions |
